Laboratory results from paper PMC9144329, “Multitarget Action of Xanthones from Garcinia mangostana against α-Amylase, α-Glucosidase and Pancreatic Lipase” (Molecules, 2022).
Read-outs that look alike come from different tables or passages of the source.

Key:
[1] = target: T1, α-glucosidase (AG) type I from Saccharomyces cerevisiae (Saccharomyces cerevisiae, UniProt P53341); assay: biochemical; format: biochemical; set-up: purchased Sigma-Aldrich L-SLBX6245
[2] = target: T2, pancreatic lipase type II (PL) from porcine pancreas (Sus scrofa, UniProt P00591); assay: Kinetic study on PL; format: biochemical; conditions: for Ki: substrate p-nitrophenyl dodecanoate
T2 construct: pancreatic lipase type II (PL) from porcine pancreas; purchased Sigma-Aldrich L-SLBD2433V; host or cells: porcine pancreas
T2 sequence (P00591 1-450): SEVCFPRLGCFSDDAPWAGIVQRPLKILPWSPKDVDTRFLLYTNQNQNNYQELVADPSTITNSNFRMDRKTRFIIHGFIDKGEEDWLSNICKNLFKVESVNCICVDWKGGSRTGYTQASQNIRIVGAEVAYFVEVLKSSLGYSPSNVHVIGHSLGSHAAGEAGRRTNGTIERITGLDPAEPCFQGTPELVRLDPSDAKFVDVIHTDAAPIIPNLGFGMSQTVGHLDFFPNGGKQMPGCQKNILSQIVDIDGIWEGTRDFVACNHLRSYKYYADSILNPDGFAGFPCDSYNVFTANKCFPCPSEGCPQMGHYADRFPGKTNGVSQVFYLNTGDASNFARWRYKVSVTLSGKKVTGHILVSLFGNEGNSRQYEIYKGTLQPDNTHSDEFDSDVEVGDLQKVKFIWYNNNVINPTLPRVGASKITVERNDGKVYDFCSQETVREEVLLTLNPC

[3] = target: T3, α-amylase (AA) type VI-B from porcine pancreas (Sus scrofa, UniProt P00690); assay: AA inhibition assay; conditions: for IC50: α-Amylase IC50 (µM), evaluated range 6.25 µM–1000 µM, mean of n = 3 ± SD
T3 sequence (P00690 16-511): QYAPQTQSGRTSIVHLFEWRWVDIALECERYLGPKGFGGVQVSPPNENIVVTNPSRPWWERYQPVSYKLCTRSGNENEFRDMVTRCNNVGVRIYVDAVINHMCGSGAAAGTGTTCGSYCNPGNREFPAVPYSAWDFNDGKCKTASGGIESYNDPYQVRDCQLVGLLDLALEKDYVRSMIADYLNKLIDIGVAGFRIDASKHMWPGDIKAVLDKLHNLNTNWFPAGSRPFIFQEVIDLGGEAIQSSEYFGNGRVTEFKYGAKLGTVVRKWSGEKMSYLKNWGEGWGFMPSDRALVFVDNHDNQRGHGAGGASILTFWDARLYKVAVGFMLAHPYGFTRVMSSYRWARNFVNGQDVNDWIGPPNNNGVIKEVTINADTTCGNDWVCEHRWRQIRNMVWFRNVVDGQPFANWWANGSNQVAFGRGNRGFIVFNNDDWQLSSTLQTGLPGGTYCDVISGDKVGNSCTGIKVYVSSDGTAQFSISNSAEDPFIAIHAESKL

PL = conditions: cited from earlier work
[4] = target: T1, α-glucosidase (AG) type I from Saccharomyces cerevisiae; assay: biochemical
α-glucosidase = conditions: cited from earlier work
[5] = target: T2, pancreatic lipase type II (PL) from porcine pancreas; assay: PL inhibition assay; format: biochemical; conditions: for IC50: evaluated range 6.25 µM–1000 µM, mean of n = 3 ± SD
[6] = target: T3, α-amylase (AA) type VI-B from porcine pancreas; assay: Kinetic study on AA; format: biochemical; set-up: α-amylase (AA) type VI-B from porcine pancreas; purchased Sigma-Aldrich L-SLBP4061V; host or cells: porcine pancreas; conditions: for Ki: substrate starch
α-amylase = conditions: cited from earlier work; for % inhibition of AA, previous studies: at a concentration of 100 µM
[7] = target: T1, α-glucosidase (AG) type I from Saccharomyces cerevisiae
[8] = substrate p-nitrophenyl-α-D-glucopyranoside, read-out: α-Glucosidase Ki
[9] = ref 17, 37, read-out: IC50 against PL, previous studies
[10] = α-Glucosidase IC50 (µM), evaluated range 6.25 µM–1000 µM, mean of n = 3 ± SD
[11] = ref 39, read-out: IC50 against AG, Ryu and collaborators
[12] = ref 31-34, read-out: IC50 against PL
[13] = ref 10, read-out: IC50 against AG, Li and collaborators
[14] = ref 53, read-out: IC50 against AG, Vongsak and collaborators
[15] = ref 31-34, read-out: IC50 against α-amylase

T1 sequence (P53341 whole entry): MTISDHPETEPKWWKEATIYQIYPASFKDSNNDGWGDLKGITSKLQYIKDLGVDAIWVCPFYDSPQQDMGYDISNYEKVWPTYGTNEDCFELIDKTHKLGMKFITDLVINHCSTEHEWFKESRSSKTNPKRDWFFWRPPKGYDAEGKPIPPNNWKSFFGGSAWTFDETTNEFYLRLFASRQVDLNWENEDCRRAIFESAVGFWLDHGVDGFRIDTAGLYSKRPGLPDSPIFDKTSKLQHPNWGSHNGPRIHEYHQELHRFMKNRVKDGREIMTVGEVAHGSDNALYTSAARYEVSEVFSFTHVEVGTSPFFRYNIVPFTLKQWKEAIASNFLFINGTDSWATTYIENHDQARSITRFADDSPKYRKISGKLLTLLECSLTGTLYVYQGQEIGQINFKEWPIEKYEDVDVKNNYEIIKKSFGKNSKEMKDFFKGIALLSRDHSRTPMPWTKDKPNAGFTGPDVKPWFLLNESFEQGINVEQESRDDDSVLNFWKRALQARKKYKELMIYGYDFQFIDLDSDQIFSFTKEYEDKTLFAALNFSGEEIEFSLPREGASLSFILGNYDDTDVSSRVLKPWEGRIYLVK

Row | Ki [1, 8] | Compound | type of inhibition against PL (in words) [2] | Ki [2] | IC50 [3] | IC50 [4, 10] | IC50 (α-glucosidase; [11]) | IC50 [5] | type of inhibition on AA (in words) [6] | Ki [6] | further results
1 | 248 µM | CC(C)=CCc1c(O)c(CC=C(C)C)c2oc3c(O)cccc3c(=O)c2c1O [Compound 2, 8-deoxygartanin] | non-competitive inhibitors | 326 µM | 166 ± 4.1 µM | 248 ± 4 µM | 21.5 µM | 326 ± 7.1 µM | non-competitive type of inhibitor | 166 µM | IC50 (PL; [9]): 50 µM
2 | 124 µM | CC(C)=CCc1c(O)c(CC=C(C)C)c2oc3c(O)ccc(O)c3c(=O)c2c1O [Compound 3, gartanin] | uncompetitive inhibitors | 130 µM | > 1000 µM | 124 ± 8.2 µM | 10 µM | 135 ± 1.5 µM | – | – | IC50 (PL; [9]): 12 µM
3 | – | COc1c(O)cc2oc3cc(O)c(CC=C(C)C)c(O)c3c(=O)c2c1CC=C(C)C [Compound 4, α-mangostin] | non-competitive inhibitors | 50.6 µM | 318 ± 4.3 µM | – | 5 µM | 50.6 ± 6.7 µM | competitive type inhibitors | 240 µM | Ki [1]: 31.6 µM; IC50 (PL; [9]): 47.3 µM; IC50 (PL; [12]): 5 µM; % inhibition of AA, previous studies (α-amylase): 60%; IC50 (α-amylase; ref 17, read-out: IC50 against AA, previous studies): 29.6 µM; IC50 [4]: 31.6 ± 2.6 µM; IC50 (α-glucosidase; [13]): 10 µM; IC50 (α-glucosidase; [14]): 29.2 µM
4 | – | CC(C)=CCc1c(O)cc2oc3cc(O)c(O)c(CC=C(C)C)c3c(=O)c2c1O [Compound 5, γ-mangostin] | – | 57.2 µM | 333 ± 4.5 µM | 84.7 ± 6.7 µM | 1.5 µM | 67.1 ± 2.8 µM | competitive type inhibitors | 139 µM | Ki [1]: 84.7 µM; IC50 (PL; [12]): 10 µM; % inhibition of AA, previous studies (α-amylase): 67.3%; IC50 (α-glucosidase; [13]): 5 µM; IC50 (α-glucosidase; [14]): 4.2 µM
5 | 37.2 µM | COc1c(O)cc2oc3cc4c(c(O)c3c(=O)c2c1CC=C(C)C)CCC(C)(C)O4 [Compound 7, 3-isomangostin] | – | – | > 1000 µM | – | – | > 1000 µM | – | – | inhibitory activity on AA (in words) [3]: completely lost; IC50 [4]: 37.2 ± 4.1 µM; inhibition in the catalytic activity of PL (in words) [5]: did not cause any inhibition
6 | – | CC1(C)CCc2c(cc3oc4cc(O)c5c(c4c(=O)c3c2O)CCC(C)(C)O5)O1 [Compound 8, BR-xanthone A] | – | – | > 1000 µM | – | – | > 1000 µM | – | – | inhibition in the catalytic activity of AG (in words) [7]: did not cause any inhibition; melting point: 160 to 162 °C; inhibitory activity on AA (in words) [3]: completely lost; IC50 [4]: > 1000 µM; inhibition in the catalytic activity of PL (in words) [5]: did not cause any inhibition
7 | – | COc1c(O)cc2oc3cc(O)c(CCC(C)C)c(O)c3c(=O)c2c1CCC(C)C [Compound 9, tetrahydro-α-mangostin] | mixed inhibitors | 405 µM | 90.1 ± 6 µM | – | – | 454.6 ± 1.9 µM | competitive type inhibitors | 90.1 µM | Ki [1]: 34.2 µM; type of inhibition of AG (in words) [1]: competitive inhibitors; IC50 [4]: 34.2 ± 1.8 µM
8 | – | CCCCCOc1cc2oc3cc(OCCCCC)c(OC)c(CC=C(C)C)c3c(=O)c2c(O)c1CC=C(C)C [Compound 10, 3,6-di-pentoxy-α-mangostin] | – | – | > 1000 µM | > 1000 µM | – | > 1000 µM | – | – | inhibition in the catalytic activity of AG (in words) [7]: did not cause any inhibition; inhibition in the catalytic activity of PL (in words) [5]: did not cause any inhibition
9 | – | COc1cc2oc3c(C)c(OC)c(CC=C(C)C)c(O)c3c(=O)c2c(CC=C(C)C)c1OC [Compound 11, 3,6-di-methoxy-4-methyl-α-mangostin] | mixed inhibitors | 59.4 µM | > 1000 µM | > 1000 µM | – | 59.4 ± 3.8 µM | – | – | inhibition in the catalytic activity of AG (in words) [7]: did not cause any inhibition; inhibitory activity on AA (in words) [3]: completely annuls the activity
10 | – | O=C(c1cc(O)ccc1O)c1c(O)cc(O)cc1O[C@@H]1O[C@H](CO)[C@@H](O)[C@H](O)[C@H]1O [Garcimangophenone B, reference compound] | – | – | – | – | – | – | – | – | IC50 (α-amylase; [15]): 12.2 µM
11 | – | Garcimangophenones A [Garcimangophenone A, reference compound] | – | – | – | – | – | – | – | – | IC50 (α-amylase; [15]): 9.3 µM
12 | – | mangoxanthone A [reference compound] | – | – | – | – | – | – | – | – | IC50 (α-amylase; [15]): 22.7 µM; IC50 (α-glucosidase; ref 31-34, read-out: IC50 against α-glucosidase): 29.1 µM

Row | Compound | Ki [1, 8] | type of inhibition against PL (in words) [2] | Ki [2] | IC50 [3] | IC50 [4, 10] | IC50 (α-glucosidase; [11]) | IC50 [5] | type of inhibition on AA (in words) [6] | Ki [6] | further results
13 | COc1c(O)cc2oc3cc4c(c(O)c3c(=O)c2c1CC=C(C)C)C=CC(C)(C)O4 [Compound 1, 9-hydroxycalabaxanthone] | 154 µM | non-competitive inhibitors | 138 µM | > 1000 µM | 157 ± 2.1 µM | 34.2 µM | 138 ± 6.8 µM | – | – | type of inhibition of AG (in words) [1]: uncompetitive inhibitor; inhibitory activity on AA (in words) [3]: completely lost; IC50 (PL; [9]): 12 µM
14 | COc1cc2oc3cc(OC)c(OC)c(CC=C(C)C)c3c(=O)c2c(O)c1CC=C(C)C [Compound 6, fuscaxanthone C] | 0.3 µM | mixed inhibitors | 69.2 µM | 164.4 ± 0.9 µM | 33.3 ± 4.1 µM | – | 69.2 ± 4.9 µM | competitive type inhibitors | 28.6 µM | type of inhibition of AG (in words) [1]: competitive inhibitors; melting point: 118 to 120 °C
